As a reminder, the IC50 is the point on the concentration scale where inhibition reaches its midpoint.

The test system of this test is HuH-7 replicon cells 5–15 and 9–13 (HCV replication). Put plainly: Inhibition of viral replication in HuH-7 replicon cells (HCV RNA / GAPDH RNA by multiplex RT-PCR). Format: cell-based. The note with it: Hepatitis C virus, 72 h; inhibiting 50% of replication; HuH-7 replicon cells, 3 days; read-out: IC50. In short, it runs like this: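 Replicon cells seeded at 7×10^3 cells/well, grown 24 h, then exposed 3 days at 37 °C to compound at final 100 μM–1 μM (1% DMSO). Multiplex TaqMan RT-PCR on total RNA quantified HCV 5′-UTR and GAPDH RNA against a standard curve; HCV/GAPDH ratio reported as percent of untreated control.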
A general note: A replicon is a self-replicating genome or part of one, used to study replication in cells.

On to `O=C(Cc1cccc(Cl)c1)N/N=C/c1ccccc1OS(=O)(=O)c1ccc(C(F)(F)F)cc1` [Compound 148, 2-((E)-{2-[2-(3-chlorophenyl)acetyl]hydrazono}methyl)-phenyl 4-(trifluoromethyl)benzenesulfonate], for which the IC50 was under 5 µM.
With `COc1ccc(CC(=O)N/N=C/c2ccccc2OS(=O)(=O)c2ccc(C)cc2)cc1OC` [Compound 149, 2-((E)-{2-[2-(3,4-dimethoxyphenyl)acetyl]hydrazono}methyl)-phenyl 4-methylbenzenesulfonate], the IC50 is under 5 µM.
Then `COc1ccc(CC(=O)N/N=C/c2ccccc2OS(=O)(=O)c2ccc(C(F)(F)F)cc2)cc1OC` [Compound 150, 2-((E)-{2-[2-(3,4-dimethoxyphenyl)acetyl]hydrazono}methyl)-phenyl 4-(trifluoromethyl)benzenesulfonate], with under 5 µM.
The figure for `COc1ccc(S(=O)(=O)Oc2ccccc2/C=N/NC(=O)Cc2cccc(OC)c2)cc1` [Compound 151, 2-((E)-{2-[2-(3-methoxyphenyl)acetyl]hydrazono}methyl)-phenyl 4-methoxybenzenesulfonate] is under 5 µM; for `COc1cccc(CC(=O)N/N=C/c2ccccc2OS(=O)(=O)c2ccc(OC)c(OC)c2)c1` [Compound 152, 2-((E)-{2-[2-(3-methoxyphenyl)acetyl]hydrazono}methyl)-phenyl 3,4-dimethoxybenzenesulfonate] it is under 5 µM; for `COc1cccc(CC(=O)N/N=C/c2ccccc2OS(=O)(=O)c2cc(OC)ccc2OC)c1` [Compound 153, 2-((E)-{2-[2-(3-methoxyphenyl)acetyl]hydrazono}methyl)-phenyl 2,5-dimethoxybenzenesulfonate] it is under 5 µM.
For the compound `COc1cccc(CC(=O)N/N=C/c2ccccc2OS(=O)(=O)c2ccc(OC)cc2OC)c1` [Compound 154, 2-((E)-{2-[2-(3-methoxyphenyl)acetyl]hydrazono}methyl)-phenyl 2,4-dimethoxybenzenesulfonate], the IC50 is under 5 µM.
Then `COc1cccc(CC(=O)N/N=C/c2cc(Cl)ccc2OS(=O)(=O)c2ccc(C)cc2)c1` [Compound 155, 4-chloro-2-((E)-{[(3-methoxyphenyl)acetyl]hydrazono}methyl)-phenyl 4-methylbenzenesulfonate], with under 5 µM; and `COc1cccc(CC(=O)N/N=C/c2cc(OC)ccc2OS(=O)(=O)c2ccc(C)cc2)c1` [Compound 156, 4-methoxy-2-((E)-{[(3-methoxyphenyl)acetyl]hydrazono}methyl)-phenyl 4-methylbenzenesulfonate], with under 5 µM.
As to `COc1cccc(CC(=O)N/N=C/c2cc(C)ccc2OS(=O)(=O)c2ccc(C)cc2)c1` [Compound 157, 2-((E)-{[(3-methoxyphenyl)acetyl]hydrazono}methyl)-4-methylphenyl 4-methylbenzenesulfonate], the IC50 was under 5 µM.
Turning to `COc1cccc(CC(=O)N/N=C/c2cc(F)ccc2OS(=O)(=O)c2ccc(C)cc2)c1` [Compound 158, 4-fluoro-2-((E)-{[(3-methoxyphenyl)acetyl]hydrazono}methyl)-phenyl 4-methylbenzenesulfonate], the IC50 was under 5 µM.
The figure for `COc1cccc(CC(=O)N/N=C/c2cccc(F)c2OS(=O)(=O)c2ccc(C)cc2)c1` [Compound 159] is 5 to 50 µM; for `COc1cccc(CC(=O)N/N=C/c2cccc(OC)c2OS(=O)(=O)c2ccc(C)cc2)c1` [Compound 160, 2-methoxy-6-((E)-{[(3-methoxyphenyl)acetyl]hydrazono}methyl)-phenyl 4-methylbenzenesulfonate] it is 5 to 50 µM; for `CCOc1cccc(/C=N/NC(=O)Cc2cccc(OC)c2)c1OS(=O)(=O)c1ccc(C)cc1` [Compound 161, 2-ethoxy-6-((E)-{[(3-methoxyphenyl)acetyl]hydrazono}methyl)-phenyl 4-methylbenzenesulfonate] it is 5 to 50 µM.
The figure for `COc1cccc(CC(=O)N/N=C/c2c(OS(=O)(=O)c3ccc(C)cc3)ccc3ccccc23)c1` [Compound 162, 1-((E)-{2-[2-(3-methoxyphenyl)acetyl]hydrazono}methyl)-2-naphthyl 4-methylbenzenesulfonate] is 5 to 50 µM; for `COc1cccc(CC(=O)N/N=C/c2cccc(C)c2OS(=O)(=O)c2ccc(C)cc2)c1` [Compound 163, 2-((E)-{[(3-methoxyphenyl)acetyl]hydrazono}methyl)-6-methylphenyl 4-methylbenzenesulfonate] it is under 5 µM.
Then `Cc1ccc(S(=O)(=O)Oc2ccc(F)cc2/C=N/NC(=O)Cc2cccc(Cl)c2)cc1` [Compound 164, 2-((E)-{[(3-chlorophenyl)acetyl]-hydrazono}methyl)-4-fluorophenyl 4-methylbenzenesulfonate], with under 5 µM; and `COc1cccc(CC(=O)N/N=C/c2cccc(OC)c2OS(=O)(=O)c2ccc(C(F)(F)F)cc2)c1` [Compound 165, 2-methoxy-6-((E)-{[(3-methoxyphenyl)acetyl]hydrazono}methyl)-phenyl 4-(trifluoromethyl)-benzenesulfonate], with under 5 µM; and `COc1cccc(CC(=O)N/N=C/c2cc(Br)ccc2OS(=O)(=O)c2ccc(C(F)(F)F)cc2)c1` [Compound 166], with under 5 µM.
In the case of `COc1cccc(CC(=O)N/N=C/c2cccc(C)c2OS(=O)(=O)c2ccc(C(F)(F)F)cc2)c1` [Compound 168, 2-((E)-{[(3-methoxyphenyl)acetyl]hydrazono}methyl)-6-methylphenyl 4-(trifluoromethyl)benzenesulfonate], the IC50 is under 5 µM.
In the case of `COc1cccc(CC(=O)N/N=C/c2c(Br)ccc(OC)c2OS(=O)(=O)c2ccc(C(F)(F)F)cc2)c1` [Compound 169, 3-bromo-6-methoxy-2-((E)-{[(3-methoxyphenyl)acetyl]hydrazono}methyl)-phenyl 4-(trifluoromethyl)benzenesulfonate], the IC50 was under 5 µM.
Then `COc1cccc(CC(=O)N/N=C/c2c(OC)cccc2OS(=O)(=O)c2ccc(C(F)(F)F)cc2)c1` [Compound 170, 3-methoxy-2-((E)-{[(3-methoxyphenyl)acetyl]hydrazono}methyl)-phenyl 4-(trifluoromethyl)benzenesulfonate], with under 5 µM; and `COc1cccc(CC(=O)N/N=C/c2cc(C)ccc2OS(=O)(=O)c2ccc(C(F)(F)F)cc2)c1` [Compound 171, 2-((E)-{[(3-methoxyphenyl)acetyl]hydrazono}methyl)-4-methylphenyl 4-(trifluoromethyl)benzenesulfonate], with under 5 µM; and `COc1cccc(CC(=O)N/N=C/c2cc(F)ccc2OS(=O)(=O)c2ccc(C(F)(F)F)cc2)c1` [Compound 172, 4-fluoro-2-((E)-{[(3-methoxyphenyl)acetyl]hydrazono}methyl)-phenyl 4-(trifluoromethyl)benzenesulfonate], with under 5 µM.
Take `Cc1cccc(/C=N/NC(=O)Cc2cccc(Cl)c2)c1OS(=O)(=O)c1ccc(C(F)(F)F)cc1` [Compound 173, 2-((E)-{[(3-chlorophenyl)acetyl]hydrazono}methyl)-6-methylphenyl 4-(trifluoromethyl)benzenesulfonate]: the IC50 is under 5 µM.
Then `COc1cccc(OS(=O)(=O)c2ccc(C(F)(F)F)cc2)c1/C=N/NC(=O)Cc1cccc(Cl)c1` [Compound 174, 2-((E)-{[(3-chlorophenyl)acetyl]hydrazono}methyl)-3-methoxyphenyl 4-(trifluoromethyl)benzenesulfonate], with under 5 µM.
`Cc1ccc(OS(=O)(=O)c2ccc(C(F)(F)F)cc2)c(/C=N/NC(=O)Cc2cccc(Cl)c2)c1` [Compound 175, 2-((E)-{[(3-chlorophenyl)acetyl]hydrazono}methyl)-4-methylphenyl 4-(trifluoromethyl)benzenesulfonate]: the IC50 was under 5 µM.
Regarding `O=C(Cc1cccc(Cl)c1)N/N=C/c1cc(F)ccc1OS(=O)(=O)c1ccc(C(F)(F)F)cc1` [Compound 176, 2-((E)-{[(3-chlorophenyl)acetyl]hydrazono}methyl)-4-fluorophenyl 4-(trifluoromethyl)benzenesulfonate], the IC50 was under 5 µM.
Then `COc1cccc(CC(=O)N/N=C/c2ccc(C)cc2OS(=O)(=O)c2ccc(C)cc2)c1` [Compound 177, 2-((E)-{[(3-methoxyphenyl)acetyl]hydrazono}methyl)-5-methylphenyl 4-methylbenzenesulfonate], with under 5 µM; and `COc1cccc(CC(=O)N/N=C/c2ccc(C)cc2OS(=O)(=O)c2ccc(C(F)(F)F)cc2)c1` [Compound 178, 2-((E)-{[(3-methoxyphenyl)acetyl]hydrazono}methyl)-5-methylphenyl 4-(trifluoromethyl)benzenesulfonate], with under 5 µM.
Then `Cc1ccc(/C=N/NC(=O)Cc2cccc(Cl)c2)c(OS(=O)(=O)c2ccc(C(F)(F)F)cc2)c1` [Compound 179, 2-((E)-{[(3-chlorophenyl)acetyl]hydrazono}methyl)-5-methylphenyl 4-(trifluoromethyl)benzenesulfonate], with over 50 µM; and `COc1cccc(CC(=O)N/N=C/c2cccc(Cl)c2OS(=O)(=O)c2ccc(C)cc2)c1` [Compound 180, 2-chloro-6-((E)-{[(3-methoxyphenyl)acetyl]hydrazono}methyl)-phenyl 4-methylbenzenesulfonate], with under 5 µM.
On to `COc1cccc(CC(=O)N/N=C/c2cccnc2OS(=O)(=O)c2ccc(C)cc2)c1` [Compound 181, 3-((E)-{2-[2-(3-methoxyphenyl)acetyl]hydrazono}methyl)-pyridin-2-yl 4-methylbenzenesulfonate], for which the IC50 lay within 5 to 50 µM.
The figure for `COc1cccc(CC(=O)N/N=C/c2ccccc2OS(=O)(=O)c2ccc3nsnc3c2)c1` [Compound 182, 2-((E)-{2-[2-(3-methoxyphenyl)acetyl]hydrazono}methyl)-phenyl 2,1,3-benzothiadiazole-5-sulfonate] is under 5 µM.

The values above are taken from patent publication US7026339B2, “Inhibitors of HCV NS5B polymerase” (priority 2003, dated 2006).
